What was measured:
GSNOR = molecular target: T1, GSNOR (Homo sapiens, UniProt P11766); assay: GSNOR assay (inhibition of GSNOR activity in vitro); format: biochemical; details: 0.240 mM GSNO, 0.300 mM NADH, pH 7.4, 25° C.; read-out: GSNOR inhibitor IC50
T1 construct: made in house; host or cells: E. coli
Procedure: Various compounds were tested in vitro for their ability to inhibit GSNOR activity.
Pre-cultures were grown from stabs of a GSNOR glycerol stock in 2XYT media containing 100 ug/ml ampicillin after an overnight incubation at 37° C. Cells were then added to fresh 2XYT (4 L) containing ampicillin and grown to an OD (A600) of 0.6-0.9 at 37° C. before induction. GSNOR expression was induced with 0.1% arabinose in an overnight incubation at 20° C.
E. coli cell paste was lysed by nitrogen cavitation and the clarified lysate purified by Ni affinity chromatography on an AKTA FPLC (Amersham Pharmacia). The column was eluted in 20 mM Tris pH 8.0/250 mM NaCl with a 0-500 mM imidazole gradient. […] GSNOR was recovered in the flowthrough fraction and for crystallography is further purified by Q-Sepharose and Heparin flowthrough chromatography in 20 mM Tris pH 8.0, 1 mM DTT, 10 uM ZnSO4.
GSNO and Enzyme/NADH Solutions are made up fresh each day. The Solutions are filtered and allowed to warm to room temperature. GSNO Solution: 100 mM NaPO4 (pH 7.4), 0.480 mM GSNO. 396 μL of GSNO Solution is added to a cuvette followed by 8 μL of test compound in DMSO (or DMSO only for full reaction control) and mixed with the pipette tip. Compounds to be tested are made up at a stock concentration of 10 mM in 100% DMSO. 2 fold serial dilutions are done in 100% DMSO. 8 μL of each dilution are added to an assay so that the final concentration of DMSO in the assay is 1%. The concentrations of compounds tested range from 100 to 0.003 μM. Enzyme/NADH Solution: 100 mM NaPO4 (pH 7.4), 0.600 mM NADH, 1.0 μg/mL GSNO Reductase. 396 μL of the Enzyme/NADH Solution is added to the cuvette to start the reaction. The cuvette is placed in the Cary 3E UV/Visible Spectrophotometer and the change in 340 nm absorbance/min at 25° C. is recorded for 3 minutes. The assays are done in triplicate for each compound concentration. IC50's for each compound are calculated using the standard curve analysis in the Enzyme Kinetics Module of SigmaPlot.
Final assay conditions: 100 mM NaPO4, pH 7.4, 0.240 mM GSNO, 0.300 mM NADH, 0.5 μg/mL GSNO Reductase and 1% DMSO. Final volume: 800 μL/cuvette.

[1] = Mouse pharmacokinetic (PK) study; format: in vivo; details: plasma, male BALB/c mice, PO 10 mg/kg vs IV 2 mg/kg, read-out: oral bioavailability (% F)
Description: The mouse is used to determine the pharmacokinetics of compounds of the invention. This species is widely used to assess the bioavailability of compounds by administering both oral (PO) and intravenous (IV) test articles. Efficacy of the compounds of the invention are compared by assessing plasma exposure in male BALB/c mice either via IV or PO administration at the times of peak activity.
Compounds of the invention are reconstituted in a phosphate buffered saline (PBS)/10% Solutol (HS 15) clear solution resulting in a concentration of 0.2 mg/mL and administered to mice (2 mg/kg) as a single IV dose. Animals dosed via the lateral tail vein. […] The plasma is transferred into labeled polypropylene tubes and frozen at −70° C. until analyzed by LC/MS/MS.
The compounds of the invention are reconstituted in 40% Propylene Glycol/40% Propylene Carbonate/20% of a 5% Sucrose clear solution resulting in a concentration of 2 mg/mL and administered to mice (10 mg/kg) as a single oral dose via gavage. […] The plasma is transferred into labeled polypropylene tubes and frozen at −70° C. until analyzed by LC/MS/MS.
Plasma samples at each timepoint were analyzed using a LC-MS/MS with a lower limit of quantification (LLOQ) of 1 ng/mL. […]
In addition to the above PK parameters, bioavailability (% F) was calculated.

T1 sequence (P11766 whole entry): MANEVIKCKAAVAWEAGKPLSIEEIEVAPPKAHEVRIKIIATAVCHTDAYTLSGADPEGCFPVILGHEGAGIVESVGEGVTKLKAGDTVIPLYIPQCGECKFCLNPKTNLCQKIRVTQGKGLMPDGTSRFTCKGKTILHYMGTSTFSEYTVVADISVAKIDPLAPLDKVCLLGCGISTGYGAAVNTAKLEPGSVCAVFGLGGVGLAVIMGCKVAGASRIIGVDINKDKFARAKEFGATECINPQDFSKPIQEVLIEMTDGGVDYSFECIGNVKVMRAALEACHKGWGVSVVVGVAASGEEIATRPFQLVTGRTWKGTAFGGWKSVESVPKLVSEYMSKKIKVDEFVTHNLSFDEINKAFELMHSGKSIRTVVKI

O=C1CC(c2ccc(C(=O)O)c(O)c2)C(c2ccccc2)=C(c2ccccc2)N1 (centres unmarked) [Example 6, 2-hydroxy-4-(2-oxo-5,6-diphenyl-1,2,3,4-tetrahydropyridin-4-yl)benzoic acid]
IC50 (GSNOR): < 100 nM | bioavailability [1]: 22%

Reference: patent publication US9283213B2, “Dihydropyridin-2(1H)-one compounds as S-nitrosoglutathione reductase inhibitors and neurokinin-3 receptor antagonists” (N30 Pharmaceuticals, Inc., priority 2010, dated 2016)
